Data on two molecules can be found in patent US11298330B2, “Magnesium compositions and methods of use” (Neurocentria, Inc., priority 2017, dated 2022).

The test system of data set [1] is young (9-month old) and aged (25-month old) rats. As to conditions: food containing 2% magnesium oxide for 8 days, cited from earlier work.
For data set [2], the system named is diabetic patients. The note with it: nearly 1 g of magnesium daily for 1 month; cited from earlier work.
The test system of data set [3] is diabetic patients. The note with it: 720 mg/day for three months; cited from earlier work.
Data set [4] concerns cultured rat hippocampal neurons. The experiment in a line: Probability of transmitter release (Pr) by FM dye uptake. The format is cell-based. The note with it: extracellular magnesium concentration from 0.8 mM to 1.2 mM for 4 h. The method, then:
An example of the effect of calcium and magnesium on the regulation of Probability of transmitter release (Pr) is shown in FIG. 3. In an experiment, rat hippocampal neurons were cultured in vitro in varying concentrations of extracellular calcium or magnesium, thereby effectively varying concentrations of intracellular calcium or magnesium. A traceable dye was used as a model neurotransmitter to measure the change in Pr. […] Furthermore, at a relatively low intracellular calcium concentration, the inverse relationship between intracellular magnesium concentration and Pr was more apparent, as shown in FIG. 3B. At a low calcium concentration condition, increasing the extracellular magnesium concentration promoted more synapses with a higher intracellular magnesium concentrations and low Pr values. […]
The Probability of transmitter release (Pr) of cultured rat hippocampal neurons was measured by quantification of N-β-Triethylammoniumpropyl)-4-(4-(Dibutylamino) Styryl) Pyridinium Dibromide (FM) dye uptake following a string of 30 single 1 Hertz (Hz) action potentials (Pr1Ap). […] Intracellular magnesium concentration was quantified by the intensity of MgGreen (MgGrn), a fluorescent dye that was proportional to magnesium concentration (Zhou et al., 2015).

For the molecule `[O]=[Mg]` [magnesium oxide], the side-effect result in data set [1] is “diarrhea and weight loss”. The cognitive function result in data set [1] (gain transient) is “some sign of improvement”. In addition, in data set [2], the “increase of serum magnesium level” value is given as “about 10%” and the metabolic control entry is “only minor improvement”.

Take `[Mg+2]` [magnesium]: in data set [3], the “blood magnesium levels raised, on average” value is “about 10%” and the “metabolic control as assessed by HbAlc levels” value is given as “no improvement”. Further, in data set [4], the “effect on calcium-Pr relationship” value was “shifted the calcium-Pr relationship to the right”.
